From patent US10722518B2, “Oxazine derivative for use in the treatment or prevention of cerebral amyloid angiopathy” (Novartis AG, priority 2016, dated 2020)

Test system: amyloid-beta in CD31-positive vessels
Test: Assessment of CAA in APP23 mice by CD31/NT12 double fluorescence immunohistochemistry and image analysis
Type: in vivo, mouse
Experimental: Amyloid plaques were stained using a rabbit anti-Aβ primary antibody (NT12) which recognizes the C-terminal part of the amyloid peptide (the antibody was raised as described in Schrader-Fischer G and Paganetti P A, 1996, and Schrader-Fischer G et al., 1997). The vascular endothelial cells were detected using a rat anti-CD31 antibody (reference DIA310) from Dianova GmbH (Hamburg, Germany). All stainings were performed using the fully automated instrument Ventana Discovery® Ultra (Roche Diagnostics Schweiz AG, Rotkreuz, Switzerland). All chemicals were provided by Roche Diagnostic.
All study animals were used and brain tissue sections of 3 micrometers were freshly cut and collected on SuperFrost+ slides. The tissues sections were de-paraffinized and rehydrated under solvent-free conditions (EZprep solution) followed by antigen retrieval (demasking) performed by heat retrieval cycles for 32 min in a EDTA based buffer (CC1 solution). Subsequently, slides were blocked for 4 min using the DISCOVERY Inhibitor (reference 07017944001 (Roche)). The primary antibody diluted at 1/10′000 in antibody diluent was manually added on tissue sections and incubated for 1 h at room temperature. A short post-fixation (glutaraldehyde at 0.05%) was performed before applying the multimer UltraMap-anti Rabbit HRP ready to use antibody (reference 05269717001) for 16 min.
Detection was performed using the DISCOVERY FITC® following the manufacturer's recommendations. Slides were then heat denaturated at 92° C. for 20 min before a manual application of the second primary antibody (rat anti-CD31 diluted at 1/1′000 in antibody diluent) and incubated for 1 h. Multimer UltraMap-anti-Rat HRP antibody (reference 05891884001) was used for 20 min to detect CD31 in combination with the DISCOVERY Rhodamine kit (reference 07259883001).
The slides were washed and mounted using Prolong® Gold antifade reagent (reference P36931, ThermoFisher, Switzerland) and further scanned with the Hamamatsu slide scanner instrument (NanoZoomer 2.0 HT, scanning software NDP-Scan Vers. 2.5, Hamamatsu Photonics France, Swiss Office, Solothurn, Switzerland) at the 40× objective. The scanning settings were as follows: the exposure time with the DAPI filter was set at 28.5 ms as well as for the FITC filter and TRITC filter (detection of Rhodamine).
For the quantitative plaque and vessel-associated amyloid-beta evaluation based on image analysis, a proprietary image analysis platform (ASTORIA, Automated Stored Image Analysis) was developed based on MS Visual Studio 2010 and many functions from Matrox MIL V9 libraries (Matrox Inc, Quebec, Canada).
For the beta-amyloid plaque and vessel analysis, the following sequence of steps was performed: • Slides were scanned with Hamamatsu Nanozoomer at 40× magnification. […]

[1] = 0.3 g/kg food, 6 months, all CD31+ vessels
[2] = 0.3 g/kg food, 6 months, large CD31-positive vessels
[3] = 0.3 g/kg vs vehicle, all CD31+ vessels
[4] = 0.3 g/kg vs vehicle, large vessels
[5] = 0.3 g/kg vs vehicle, small + medium vessels

C[C@@]1(c2nc(NC(=O)c3ncc(C(F)(F)F)cc3Cl)ccc2F)CO[C@@](C)(C(F)(F)F)C(N)=N1 [Compound 1, N-(6-((3R,6R)-5-amino-3,6-dimethyl-6-(trifluoromethyl)-3,6-dihydro-2H-1,4-oxazin-3-yl)-5-fluoropyridin-2-yl)-3-chloro-5-(trifluoromethyl)picolinamide]
% of large vessels with 0% Aβ (0.3 g/kg food, 6 months): 10.3 ± 1.56% | % of large vessels with 1-10% Aβ (0.3 g/kg food, 6 months): 21.6 ± 2.31% | % of large vessels with 10-25% Aβ (0.3 g/kg food, 6 months): 9.48 ± 1.85% | % of large vessels with 25-50% Aβ (0.3 g/kg food, 6 months): 20.6 ± 3.66% | % of large vessels with 50-75% Aβ (0.3 g/kg food, 6 months): 28.8 ± 3.3% | % of large vessels with >10% Aβ (0.3 g/kg food, 6 months): 68.1 ± 3.03% | % of large vessels with >75% Aβ (0.3 g/kg food, 6 months): 9.27 ± 2.77% | % of small + medium vessels with 0% Aβ (0.3 g/kg food, 6 months): 80.2 ± 1.61% | % of small + medium vessels with 1-10% Aβ (0.3 g/kg food, 6 months): 10.8 ± 1.12% | % of small + medium vessels with 10-25% Aβ (0.3 g/kg food, 6 months): 2.75 ± 0.20% | % of small + medium vessels with 25-50% Aβ (0.3 g/kg food, 6 months): 2.38 ± 0.25% | % of small + medium vessels with 50-75% Aβ (0.3 g/kg food, 6 months): 1.73 ± 0.21% | % of small + medium vessels with >10% Aβ (0.3 g/kg food, 6 months): 8.95 ± 0.8% | % of small + medium vessels with >75% Aβ (0.3 g/kg food, 6 months): 2.07 ± 0.33% | CAA Frequency (number small + medium vessels with >10% Aβ normalized to sample area, *10^7) (0.3 g/kg food, 6 months): 56 ± 6.1 | Number of large CD31+ vessels (normalized to total CD31 positive vessel numbers in %) (0.3 g/kg food, 6 months): 1.49 ± 0.12% | Number of small + medium CD31+ vessels (normalized to total CD31 positive small + medium vessel numbers in %) (0.3 g/kg food, 6 months): 98.5 ± 0.12% | Number small + medium vessels with >10% Aβ, mean ± SEM (0.3 g/kg food, 6 months): 195 ± 21.9 | Total number CD31+ vessels (normalized to total sample area, *10^5), mean ± SEM (0.3 g/kg food, 6 months): 6.46 ± 0.37 | Total vessel-associated NT12 area (normalized to total small + medium CD31+ vessel area) (0.3 g/kg food, 6 months): 0.194 ± 0.0201 | % of vessels with 0% Aβ [1]: 79.2 ± 1.63% | % of vessels with 1-10% Aβ [1]: 11 ± 1.1% | % of vessels with 10-25% Aβ [1]: 2.87 ± 0.21% | % of vessels with 25-50% Aβ [1]: 2.65 ± 0.25% | % of vessels with 50-75% Aβ [1]: 2.12 ± 0.24% | % of vessels with >10% Aβ [1]: 9.82 ± 0.85% | % of vessels with >75% Aβ [1]: 2.19 ± 0.36% | CAA Frequency (number vessels with >10% Aβ normalized to sample area, *10^7) [1]: 70 ± 7.6 | Number vessels with >10% Aβ, mean ± SEM [1]: 217 ± 23.6 | Total vessel-associated NT12 area (normalized to total CD31+ area) [1]: 0.47 ± 0.04 | CAA Frequency (number vessels with >10% Aβ normalized to sample area, *10^7) [2]: 6.5 ± 0.6 | Number vessels with >10% Aβ, mean ± SEM [2]: 22 ± 2.2 | Total vessel-associated NT12 area (normalized to total CD31+ area) [2]: 0.77 ± 0.04 | % of large vessels with 0% Aβ, treatment effect vs vehicle (0.3 g/kg vs vehicle): −8% | % of large vessels with 1-10% Aβ, treatment effect vs vehicle (0.3 g/kg vs vehicle): +48% | % of large vessels with 10-25% Aβ, treatment effect vs vehicle (0.3 g/kg vs vehicle): +35% | % of large vessels with 25-50% Aβ, treatment effect vs vehicle (0.3 g/kg vs vehicle): +7% | % of large vessels with 50-75% Aβ, treatment effect vs vehicle (0.3 g/kg vs vehicle): −12% | % of large vessels with >10% Aβ, treatment effect vs vehicle (0.3 g/kg vs vehicle): −8% | % of large vessels with >75% Aβ, treatment effect vs vehicle (0.3 g/kg vs vehicle): −36% | % of small + medium vessels with 0% Aβ, treatment effect vs vehicle (0.3 g/kg vs vehicle): +9% | % of small + medium vessels with 1-10% Aβ, treatment effect vs vehicle (0.3 g/kg vs vehicle): −15% | % of small + medium vessels with 10-25% Aβ, treatment effect vs vehicle (0.3 g/kg vs vehicle): −35% | % of small + medium vessels with 25-50% Aβ, treatment effect vs vehicle (0.3 g/kg vs vehicle): −39% | % of small + medium vessels with 50-75% Aβ, treatment effect vs vehicle (0.3 g/kg vs vehicle): −35% | % of small + medium vessels with >10% Aβ, treatment effect vs vehicle (0.3 g/kg vs vehicle): −36% | % of small + medium vessels with >75% Aβ, treatment effect vs vehicle (0.3 g/kg vs vehicle): −34% | Total small + medium vessel-associated NT12 area (normalized to total CD31+ small + medium vessel area), treatment effect vs vehicle (0.3 g/kg vs vehicle): −28% p < 0.05 | % of vessels with 0% Aβ, treatment effect vs vehicle [3]: +9% | % of vessels with 1-10% Aβ, treatment effect vs vehicle [3]: −13% | % of vessels with 10-25% Aβ, treatment effect vs vehicle [3]: −32% | % of vessels with 25-50% Aβ, treatment effect vs vehicle [3]: 36% | % of vessels with 50-75% Aβ, treatment effect vs vehicle [3]: −33% | % of vessels with >10% Aβ, treatment effect vs vehicle [3]: −34% | % of vessels with >75% Aβ, treatment effect vs vehicle [3]: −34% | CAA Frequency, treatment effect vs vehicle [3]: −29% p < 0.05 | Number vessels with >10% Aβ, treatment effect vs vehicle [3]: −39% p < 0.001 | Total vessel-associated NT12 area (normalized to total CD31+ area), treatment effect vs vehicle [3]: −19% n.s. | CAA Frequency, treatment effect vs vehicle [4]: −17% n.s. | Number vessels with >10% Aβ, treatment effect vs vehicle [4]: −21% n.s. | Total vessel-associated NT12 area (normalized to total CD31+ area), treatment effect vs vehicle [4]: −4% n.s. | CAA Frequency, treatment effect vs vehicle [5]: −37% p < 0.005 | Number vessels with >10% Aβ, treatment effect vs vehicle [5]: −40% p < 0.001
